Where “and” joins values, the source holds several entries; their conditions need not be identical. Equal values may be shown once.
How the values were obtained:
Type in all cases: in vivo
[1] = test system: Barnyardgrass; test: pre-emergence herbicide test; settings: 0.25 lb/A; for inhibition at 280.212 g/ha: Echinochloa crus-galli, pre-emergence, read-out: % plant inhibition
In short: (§1)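 Seeds were sown on compacted topsoil in pans and covered with a topsoil layer carrying a known amount of active ingredient in acetone or water, applied before or after covering. Pans were bottom-watered on a greenhouse bench, and % inhibition was scored about 14 days after seeding and treatment.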

[2] = test system: Bedstraw Catchweed; test: pre-emergence herbicide test; settings: Galium aparine, pre-emergence, 0.25 lb/A; read-out: % plant inhibition
In short: as §1

[3] = test system: Birdseye Speedwell; test: pre-emergence herbicide test; settings: pre-emergence, 0.25 lb/A; read-out: % plant inhibition
In short: as §1

[4] = test system: Blackgrass; test: pre-emergence herbicide test; settings: Alopecurus myosuroides, pre-emergence, 0.25 lb/A; read-out: % plant inhibition
In short: as §1

[5] = test system: Cocklebur; test: pre-emergence herbicide test; settings: 0.25 lb/A; for inhibition at 280.212 g/ha: Xanthium strumarium, pre-emergence, read-out: % plant inhibition
In short: as §1

[6] = test system: Common Chickweed; test: pre-emergence herbicide test; settings: pre-emergence, 0.25 lb/A; read-out: % plant inhibition
In short: as §1

[7] = test system: Corn; test: pre-emergence herbicide test; settings: 0.25 lb/A; for inhibition at 280.212 g/ha: Zea mays, pre-emergence, read-out: % plant inhibition
In short: as §1

[8] = test system: Downy Brome; test: pre-emergence herbicide test; settings: Bromus tectorum, pre-emergence, 0.25 lb/A; read-out: % plant inhibition
In short: as §1

[9] = test system: Giant Foxtail; test: pre-emergence herbicide test; settings: Setaria faberi, pre-emergence, 0.25 lb/A; read-out: % plant inhibition
In short: as §1

[10] = test system: Green Foxtail; test: pre-emergence herbicide test; settings: Setaria viridis, pre-emergence; 0.25 lb/A; read-out: % plant inhibition
In short: as §1

[11] = test system: Morning Glory; test: pre-emergence herbicide test; settings: 0.25 lb/A; for inhibition at 280.212 g/ha: Ipomoea, pre-emergence, read-out: % plant inhibition
In short: as §1

[12] = test system: Rape; test: pre-emergence herbicide test; settings: pre-emergence, 0.25 lb/A; read-out: % plant inhibition
In short: as §1

[13] = test system: Seedling Johnsongrass; test: pre-emergence herbicide test; settings: Sorghum halepense, pre-emergence, 0.25 lb/A; read-out: % plant inhibition
In short: as §1

[14] = test system: Soybean; test: pre-emergence herbicide test; settings: Glycine max, pre-emergence, 0.25 lb/A; read-out: % plant inhibition
In short: as §1

[15] = test system: Velvetleaf; test: pre-emergence herbicide test; settings: 0.25 lb/A; for inhibition at 280.212 g/ha: Abutilon theophrasti, pre-emergence, read-out: % plant inhibition
In short: as §1

[16] = test system: Wheat; test: pre-emergence herbicide test; settings: Triticum aestivum, pre-emergence, 0.25 lb/A; read-out: % plant inhibition
In short: as §1

[17] = test system: Wild Oats; test: pre-emergence herbicide test; settings: Avena fatua, pre-emergence, 0.25 lb/A; read-out: % plant inhibition
In short: as §1

[18] = test system: Barnyardgrass; test: post-emergence herbicide test; settings: Echinochloa crus-galli, post-emergence, 0.25 lb/A; read-out: % plant inhibition
In short: (§2)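 Soil pans seeded, covered and leveled; grown in greenhouse 2–3 weeks. Sprayed individually (atomizer, 10 psig, 200 gallons/acre). Percent inhibition recorded.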

[19] = test system: Bedstraw Catchweed; test: post-emergence herbicide test; settings: Galium aparine, post-emergence, 0.25 lb/A; read-out: % plant inhibition
In short: as §2

[20] = test system: Birdseye Speedwell; test: post-emergence herbicide test; settings: post-emergence, 0.25 lb/A; read-out: % plant inhibition
In short: as §2

[21] = test system: Blackgrass; test: post-emergence herbicide test; settings: Alopecurus myosuroides, post-emergence, 0.25 lb/A; read-out: % plant inhibition
In short: as §2

[22] = test system: Cocklebur; test: post-emergence herbicide test; settings: Xanthium strumarium, post-emergence, 0.25 lb/A; read-out: % plant inhibition
In short: as §2

[23] = test system: Common Chickweed; test: post-emergence herbicide test; settings: post-emergence, 0.25 lb/A; read-out: % plant inhibition
In short: as §2

[24] = test system: Corn; test: post-emergence herbicide test; settings: Zea mays, post-emergence, 0.25 lb/A; read-out: % plant inhibition
In short: as §2

[25] = test system: Downy Brome; test: post-emergence herbicide test; settings: Bromus tectorum, post-emergence, 0.25 lb/A; read-out: % plant inhibition
In short: as §2

[26] = test system: Giant Foxtail; test: post-emergence herbicide test; settings: Setaria faberi, post-emergence, 0.25 lb/A; read-out: % plant inhibition
In short: as §2

[27] = test system: Green Foxtail; test: post-emergence herbicide test; settings: Setaria viridis, post-emergence, 0.25 lb/A; read-out: % plant inhibition
In short: as §2

[28] = test system: Morning Glory; test: post-emergence herbicide test; settings: Ipomoea, post-emergence, 0.25 lb/A; read-out: % plant inhibition
In short: as §2

[29] = test system: Rape; test: post-emergence herbicide test; settings: post-emergence, 0.25 lb/A; read-out: % plant inhibition
In short: as §2

[30] = test system: Seedling Johnsongrass; test: post-emergence herbicide test; settings: Sorghum halepense, post-emergence, 0.25 lb/A; read-out: % plant inhibition
In short: as §2

[31] = test system: Soybean; test: post-emergence herbicide test; settings: Glycine max, post-emergence, 0.25 lb/A; read-out: % plant inhibition
In short: as §2

[32] = test system: Velvetleaf; test: post-emergence herbicide test; settings: Abutilon theophrasti, post-emergence, 0.25 lb/A; read-out: % plant inhibition
In short: as §2

[33] = test system: Wheat; test: post-emergence herbicide test; settings: Triticum aestivum, post-emergence, 0.25 lb/A; read-out: % plant inhibition
In short: as §2

[34] = test system: Wild Oats; test: post-emergence herbicide test; settings: Avena fatua, post-emergence, 0.25 lb/A; read-out: % plant inhibition
In short: as §2

Structure (SMILES)	inhibition at 280.212 g/ha [1] [%]	inhibition at 280.212 g/ha [2] [%]	inhibition at 280.212 g/ha [3] [%]	inhibition at 280.212 g/ha [4] [%]	inhibition at 280.212 g/ha [5] [%]	inhibition at 280.212 g/ha [6] [%]	inhibition at 280.212 g/ha [7] [%]	inhibition at 280.212 g/ha [8] [%]	inhibition at 280.212 g/ha [9] [%]	inhibition at 280.212 g/ha [10] [%]	inhibition at 280.212 g/ha [12] [%]	inhibition at 280.212 g/ha [13] [%]	inhibition at 280.212 g/ha [14] [%]	inhibition at 280.212 g/ha [15] [%]	inhibition at 280.212 g/ha [16] [%]	inhibition at 280.212 g/ha [17] [%]	inhibition at 280.212 g/ha [18] [%]	inhibition at 280.212 g/ha [19] [%]	inhibition at 280.212 g/ha [20] [%]	inhibition at 280.212 g/ha [21] [%]	other results
COC(=O)CSCc1cc(-c2nn(C)c(C(F)(F)F)c2C)c(F)cc1Cl [Compound 31]	5	30	25	5	15	25	10	5	10	20	5	40	3	80	0	5	70	70	100	20	inhibition at 280.212 g/ha [11]: 45%; inhibition at 280.212 g/ha [22]: 99%; inhibition at 280.212 g/ha [23]: 95%; inhibition at 280.212 g/ha [24]: 50%; inhibition at 280.212 g/ha [25]: 55%; inhibition at 280.212 g/ha [26]: 50%; inhibition at 280.212 g/ha [27]: 75%; inhibition at 280.212 g/ha [28]: 80%; inhibition at 280.212 g/ha [29]: 75%; inhibition at 280.212 g/ha [30]: 90%; inhibition at 280.212 g/ha [31]: 35%; inhibition at 280.212 g/ha [32]: 99%; inhibition at 280.212 g/ha [33]: 20%; inhibition at 280.212 g/ha [34]: 35%
Cc1c(-c2cc(C(N)=O)c(Cl)cc2F)nn(C)c1C(F)(F)F [Compound 21]	90	90	100	95	20	98	16	35	45	100	90	85	15	25	5	60	25	65	50	10	inhibition at 280.212 g/ha [11]: 20%; inhibition at 280.212 g/ha [22]: 65%; inhibition at 280.212 g/ha [23]: 30%; inhibition at 280.212 g/ha [24]: 10%; inhibition at 280.212 g/ha [25]: 25%; inhibition at 280.212 g/ha [26]: 35%; inhibition at 280.212 g/ha [27]: 25%; inhibition at 280.212 g/ha [28]: 90%; inhibition at 280.212 g/ha [29]: 20%; inhibition at 280.212 g/ha [30]: 35%; inhibition at 280.212 g/ha [31]: 35%; inhibition at 280.212 g/ha [32]: 90%; inhibition at 280.212 g/ha [33]: 5%; inhibition at 280.212 g/ha [34]: 20%
CC(C)OC(=O)c1cc(-c2nn(C)c(C(F)(F)F)c2C(F)F)c(F)cc1Cl [Compound 13, 2-Chloro-5-[4-(difluoromethyl)-1-methyl-5-(trifluoromethyl)-1H-pyrazol-3-yl]-4-fluorobenzoic acid, 1-methylethyl ester]	100	100	90	98	70	90	80	100	100	100	65	100	30	100	3	95	90	100	100	95	% plant inhibition [1]: 99%; % plant inhibition [5]: 75%; % plant inhibition [7]: 65%; % plant inhibition [11]: 50% and 93%; % plant inhibition [15]: 98%; inhibition at 280.212 g/ha [22]: 95%; inhibition at 280.212 g/ha [23]: 98%; inhibition at 280.212 g/ha [24]: 55%; inhibition at 280.212 g/ha [25]: 90%; inhibition at 280.212 g/ha [26]: 95%; inhibition at 280.212 g/ha [27]: 100%; inhibition at 280.212 g/ha [28]: 98%; inhibition at 280.212 g/ha [29]: 100%; inhibition at 280.212 g/ha [30]: 100%; inhibition at 280.212 g/ha [31]: 90%; inhibition at 280.212 g/ha [32]: 100%; inhibition at 280.212 g/ha [33]: 20%; inhibition at 280.212 g/ha [34]: 90%
Cc1c(-c2cc(C(=O)OCC(=O)c3ccccc3)c(Cl)cc2F)nn(C)c1C(F)(F)F [Compound 43]	15	20	60	10	45	55	0	5	15	60	5	35	0	65	0	5	5	30	100	10	inhibition at 280.212 g/ha [11]: 10%; inhibition at 280.212 g/ha [22]: 85%; inhibition at 280.212 g/ha [23]: 65%; inhibition at 280.212 g/ha [24]: 7%; inhibition at 280.212 g/ha [25]: 10%; inhibition at 280.212 g/ha [26]: 0%; inhibition at 280.212 g/ha [27]: 20%; inhibition at 280.212 g/ha [28]: 75%; inhibition at 280.212 g/ha [29]: 25%; inhibition at 280.212 g/ha [30]: 25%; inhibition at 280.212 g/ha [31]: 15%; inhibition at 280.212 g/ha [32]: 80%; inhibition at 280.212 g/ha [33]: 10%; inhibition at 280.212 g/ha [34]: 15%
CC(=O)CCCOC(=O)c1cc(-c2nn(C)c(C(F)(F)F)c2C)c(F)cc1Cl [Compound 53]	85	50	70	15	15	40	5	15	9	100	5	75	0	85	0	5	70	95	95	25	inhibition at 280.212 g/ha [11]: 80%; inhibition at 280.212 g/ha [22]: 100%; inhibition at 280.212 g/ha [23]: 90%; inhibition at 280.212 g/ha [24]: 7%; inhibition at 280.212 g/ha [25]: 45%; inhibition at 280.212 g/ha [26]: 75%; inhibition at 280.212 g/ha [27]: 80%; inhibition at 280.212 g/ha [28]: 99%; inhibition at 280.212 g/ha [29]: 98%; inhibition at 280.212 g/ha [30]: 75%; inhibition at 280.212 g/ha [31]: 75%; inhibition at 280.212 g/ha [32]: 100%; inhibition at 280.212 g/ha [33]: 16%; inhibition at 280.212 g/ha [34]: 40%

— US5672715A, “Herbicidal substituted 3-aryl-pyrazoles” (Monsanto Company, priority 1995, dated 1997)
